In patent US11998610B2, “Conjugates and methods of using the same” (Flagship Pioneering Innovations V, Inc., priority 2018, dated 2024):

Tests used:
E. coli BL21(DE3) = test: Payload release in the presence of fecal matter, ClbP negative E. coli; assay type: cell-based; conditions: 10 μM compound, anaerobic, 37° C., 20 h, LCMS
Description: (§1) This example is representative of the methods described in Example 103. Fecal samples were subjected to metagenomic whole-genome shotgun sequencing followed by querying the dataset for the presence of the clbP gene or by attempting to amplify the gene with primers specific for it by qPCR. Samples that gave a signal below the detection limit were used in subsequent steps. The fecal sample was resuspended as a 15% (w/v) slurry in Anaerobic Phosphate Buffer Saline.
(§2) Following steps 1 and 2 as detailed in Example 98, E. coli CFT073 ATCC 700928, E. coli Nissle 1917, or E. coli BL21(DE3) were grown in liquid culture.
(§3) In an anaerobic chamber, the E. coli strains were added to the fecal samples obtained in step 1 at a dilution level calculated to represent 0, 1, 10, 50, 90, 99, or 100% of all organisms present in PRAS dilution blank on a 200 μL volume. The test compound (10 μM final concentration) was added to the mixture. The test compound was also added to a bacteria-free media control under similar conditions. The plate was sealed and incubated at 37° C. for 20 h. Under similar conditions, a standard curve of both the starting material and the payload compound was made in bacteria-free media.
(§4) After 20 h, an aliquot was tested for breakdown and release of a payload by LCMS by diluting serially to a final dilution of 1:100 first with Acetonitrile (10× dilution) and then with (1:1) Mobile Phase A-0.1% Formic Acid in Water:Mobile Phase B-0.1% Formic acid in Acetonitrile (1 OX dilution), with absolute quantification compared to the external standard curve. In an ideal case, the amount of payload released in the reaction(s) with ClbP-encoding E. coli was >75% of the theoretical maximum, and none was released in the E. coli BL21(DE3) and media-alone conditions. In an acceptable case, the amount of payload released in the reaction(s) with ClbP-encoding E. coli was 25-75% of the theoretical maximum, and <25% of the theoretical maximum was released in the E. coli BL21(DE3) and media-alone conditions. In a non-preferred case, the amount of payload released in the reactions(s) with ClbP-encoding E. coli was <25% of the theoretical maximum, and >25% of the theoretical maximum was released in the E. coli BL21(DE3) and media-alone conditions.

E. coli Nissle 1917 = test: Payload release in the presence of fecal matter, ClbP positive E. coli; assay type: cell-based; conditions: 10 μM compound, anaerobic, 37° C., 20 h, LCMS
Description: as §1, §2, §3, §4

CT26.CL25 cells = test: Cell viability readout (CellTiter-Glo) with bacteria-free media; assay type: cell-based, mouse; conditions: 10 nM compound, CT26.CL25 cells, 72 h, CellTiter-Glo
Method: Example 100: Cell-Based Assay of Bacterial Enzymes with Mammalian CT26.CL25 Mouse Colorectal Carcinoma Viability Readout
Bacteria-free media was incubated with the indicated test compound. ((R)—N1-(2-(methylamino)ethyl)-2-octanamidosuccinamide, a recognition element-linker conjugate lacking a payload, was serially diluted 1:1000 in DMSO and […] in medium+10% FBS to give a final concentration of 10 nM. Compound 35, Compound 76, Compound 77, Compound 78, Compound 79, and SN-38 were serially diluted 1:1000 in DMSO and 1:1000 in medium to give a final concentration of 10 nM, and then the bacteria-free supernatants were tested for their ability to kill mammalian cells. As an additional control, the test compound will also be incubated with bacteria-free media. The above steps can also be performed in the presence of E. coli (CFT073 ATCC 700928, Nissle 1917, or BL21 (DE3)) to effect cleavage of the conjugates of the application.
On Day 1, CT26.CL25 cells (15,000 cells/well) were seeded in triplicate into a 24 well plate and incubated overnight in 100 μL of complete medium. The reactions (bacteria or media blank) was pelleted by centrifugation, and then the supernatant was passed through a 0.2 μm sterile filter to remove residual bacteria.
On Day 2, 300 μL of a 10 nM solution of each compound in media were applied to separate wells of CT26.CL25 cells as prepared on Day 1. The cells were incubated at 37° C. for 72 h. After this point, viability was assessed using a CellTiter-Glo kit.
Binning of the compounds was achieved by measuring cell growth or arrest (e.g. remaining cells are >90% viable, >80% viable, >70% viable, >60% viable, >50% viable, >40% viable, >30% viable, >20% viable, or >10% viable).

| SMILES | % payload released in ClbP negative (BL21 DE3) at 1:1 ratio of E. coli to fecal bacteria (E. coli BL21(DE3)) [%] | % payload released in ClbP positive (Nissle 1917) at 1:1 ratio of E. coli to fecal bacteria (E. coli Nissle 1917) [%] | Bacteria-free media (Luminescence, average of three runs) (CT26.CL25 cells) |
| --- | --- | --- | --- |
| CCCCCCCC(=O)N[C@H](CC(N)=O)C(=O)NCCN(C)C(=O)Oc1ccc2c(C)cc(=O)oc2c1 [Example 70, 4-methyl-2-oxo-2H-chromen-7-yl (R)-(2-(4-amino-2-octanamido-4-oxobutanamido)ethyl)(methyl)carbamate] | 1.9 | 25.1 |  |
| CCCCCCCCCCCCCC(=O)N[C@H](CC(N)=O)C(=O)N[C@@H](C)CCC(=O)O[C@]1(CC)C(=O)OCc2c1cc1n(c2=O)Cc2c-1nc1ccc(O)cc1c2CC [Example 35, (S)-4,11-diethyl-9-hydroxy-3,14-dioxo-3,4,12,14-tetrahydro-1H-pyrano[3′,4′:6,7]indolizino[1,2-b]quinolin-4-yl (S)-4-((R)-4-amino-4-oxo-2-tetradecanamidobutanamido)pentanoate] | 0.6 | 0.9 | 380490 |
